Reference: patent US20060069132A1, “Azolecarboxamide herbicides” (priority 2004, published 2006)

Assays:
barnyardgrass [1] = experiment: Test B pre-/postemergence herbicide test; assay type: in vivo, Echinochloa crus-galli; conditions: 0 = no effect, 100 = complete control, preemergence
Outline: (§1)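 Herbicidal effect was judged by eye on a 0–100 scale after plants stood 13 to 15 days in the greenhouse following pre- or postemergence treatment with surfactant-containing formulations.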

Surinam grass = experiment: Test B pre-/postemergence herbicide test; assay type: in vivo, Urochloa decumbens; conditions: for Surinam Grass plant response rating: postemergence, scale 0 (no effect) to 100 (complete control)
Outline: (§2)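 Flooded paddy rice and barnyardgrass were treated at the 2-leaf stage; upland plantings received compound either on sown seed or on 1- to 4-leaf seedlings. All were kept 13–15 days in a greenhouse and scored visually, 0–100, relative to untreated plants.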

cocklebur = experiment: Test B pre-/postemergence herbicide test; assay type: in vivo, Xanthium strumarium; conditions: for Cocklebur plant response rating: postemergence, scale 0 (no effect) to 100 (complete control)
Outline: as §1

corn = experiment: Test B pre-/postemergence herbicide test; assay type: in vivo, Zea mays; conditions: for Corn plant response rating: postemergence, scale 0 (no effect) to 100 (complete control)
Outline: as §2

large crabgrass = experiment: Test B pre-/postemergence herbicide test; assay type: in vivo, Digitaria sanguinalis; conditions: for Crabgrass, Large plant response rating: postemergence, scale 0 (no effect) to 100 (complete control)
Outline: as §2

giant foxtail = experiment: Test B pre-/postemergence herbicide test; assay type: in vivo, Setaria faberi; conditions: for Foxtail, Giant plant response rating: postemergence, scale 0 (no effect) to 100 (complete control)
Outline: as §2

lambsquarters = experiment: Test B pre-/postemergence herbicide test; assay type: in vivo, Chenopodium album; conditions: for Lambsquarters plant response rating: postemergence, scale 0 (no effect) to 100 (complete control)
Outline: as §2

morningglory = experiment: Test B pre-/postemergence herbicide test; assay type: in vivo, Ipomoea coccinea; conditions: for Morningglory plant response rating: postemergence, scale 0 (no effect) to 100 (complete control)
Outline: as §1

pigweed = experiment: Test B pre-/postemergence herbicide test; assay type: in vivo, Amaranthus retroflexus
Outline: as §2

rice [2] = experiment: Test B pre-/postemergence herbicide test; assay type: in vivo, Oryza sativa; conditions: 0 = no effect, 100 = complete control, preemergence
Outline: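 Evaluation is visual, comparing treated with control plants on a scale where 0 means no effect and 100 means full control. Treatments were preemergence, or postemergence on seedlings 2–18 cm tall, and held 13–15 days in the greenhouse.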

velvetleaf = experiment: Test B pre-/postemergence herbicide test; assay type: in vivo, Abutilon theophrasti; conditions: for Velvetleaf plant response rating: postemergence, scale 0 (no effect) to 100 (complete control)
Outline: as §2

blackgrass = experiment: Test B postemergence herbicide test; assay type: in vivo, Alopecurus myosuroides; conditions: postemergence, visual rating, scale 0 (no effect) to 100 (complete control)
Outline: (§3)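 Treated at 2-leaf (paddy) or 1–4-leaf, 2–18 cm (postemergence); greenhouse 13–15 d; visual score vs control, 0 none to 100 complete control; dash = not tested.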

wheat = experiment: Test B postemergence herbicide test; assay type: in vivo, Triticum aestivum; set-up: key to Wheat plant response rating: 0 = no effect, 100 = complete control; conditions: postemergence, visual rating, scale 0 (no effect) to 100 (complete control)
Outline: (§4)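 Plants grow to 1- to 4-leaf stage (2–18 cm) for postemergence spraying, or to 2-leaf stage for the paddy test. Formulated compound is applied. Greenhouse holding lasts 13–15 days. Response is scored visually relative to controls, 0 no effect to 100 complete control; a dash means no result.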

wild oat = experiment: Test B postemergence herbicide test; assay type: in vivo, Avena fatua; conditions: postemergence, visual rating, scale 0 (no effect) to 100 (complete control)
Outline: as §4

rice [3] = experiment: Test B flooded paddy test; assay type: in vivo, Oryza sativa; conditions: 1000 g ai/ha, scale 0 to 100 (0 no effect, 100 complete control)
Outline: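 After treating 2-leaf paddy plants or 2–18 cm postemergence plants (1 to 4 leaves) with formulated chemical, researchers kept them in a greenhouse for 13–15 days. Effects were judged visually versus controls: 0 indicates none, 100 total control.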

[4] = test system: small flower umbrella sedge; experiment: Test B flooded paddy test; assay type: in vivo, Cyperus difformis; conditions: 1000 g ai/ha, scale 0 to 100 (0 no effect, 100 complete control)
Outline: as §3

ducksalad [5] = experiment: Test B flooded paddy test; assay type: in vivo, Heteranthera limosa; conditions: 1000 g ai/ha, scale 0 to 100 (0 no effect, 100 complete control)
Outline: as §3

barnyardgrass [6] = experiment: Test B flooded paddy test; assay type: in vivo, Echinochloa crus-galli; conditions: 1000 g ai/ha, scale 0 to 100 (0 no effect, 100 complete control)
Outline: as §3

rice [7] = experiment: Test C flooded paddy test; assay type: in vivo, Oryza sativa
Outline: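 Plants were grown to the 1- to 4-leaf stage (2–18 cm) and then treated postemergence, or grown to the 2-leaf stage for the flooded paddy test. They were held in a greenhouse for 12 to 14 days and then scored by eye against controls, where 0 is no effect and 100 is complete control.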

[8] = test system: smallflower umbrella sedge; experiment: Test C flooded paddy test; assay type: in vivo, Cyperus difformis
ducksalad [9] = experiment: Test C flooded paddy test; assay type: in vivo, Heteranthera limosa
barnyardgrass [10] = experiment: Test C flooded paddy test; assay type: in vivo, Echinochloa crus-galli
Outline: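 Visual rating, 0 (no effect) to 100 (complete control), vs. controls at 12–14 d in greenhouse. Postemergence: 1–4-leaf plants, 2–18 cm. Paddy: flooded, barnyardgrass at 2-leaf stage.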

[11] = 125 g ai/ha, 0 = no effect, 100 = complete control, preemergence
[12] = 500 g ai/ha, visual rating, 0 = no effect, 100 = complete control, preemergence
[13] = 62 g ai/ha, scale 0 to 100 (0 no effect, 100 complete control)
[14] = 125 g ai/ha, scale 0 to 100 (0 no effect, 100 complete control)
[15] = 250 g ai/ha, scale of 0 to 100, 0 is no effect, 100 is complete control
[16] = 500 g ai/ha, visual rating after 12 to 14 days, scale 0 to 100 (0 no effect, 100 complete control)

CCc1cn(C(C)(C)C)nc1C(=O)Nc1cc(C(=O)N(C)C)ccn1 [Compound 232]
Barnyardgrass plant response rating (0 to 100 scale) (barnyardgrass [1]; 125 g ai/ha): 20 | Plant response rating, Barnyardgrass (barnyardgrass [1]; 500 g ai/ha, visual rating): 60 | Surinam Grass plant response rating (0 to 100 scale) (Surinam grass; [11]): 0 | Plant response rating, Surinam Grass (Surinam grass; [12]): 30 | Surinam Grass plant response rating (Surinam grass; 125 g ai/ha, visual rating): 10 | Surinam Grass plant response rating (Surinam grass; 500 g ai/ha, visual rating): 20 | Cocklebur plant response rating (0 to 100 scale) (cocklebur; [11]): 0 | Plant response rating, Cocklebur (cocklebur; [12]): 0 | Cocklebur plant response rating (cocklebur; 125 g ai/ha, visual rating): 10 | Cocklebur plant response rating (cocklebur; 500 g ai/ha, visual rating): 30 | Corn plant response rating (0 to 100 scale) (corn; [11]): 0 | Plant response rating, Corn (corn; [12]): 0 | Corn plant response rating (corn; 125 g ai/ha, visual rating): 10 | Corn plant response rating (corn; 500 g ai/ha, visual rating): 20 | Crabgrass, Large plant response rating (0 to 100 scale) (large crabgrass; [11]): 60 | Plant response rating, Crabgrass, Large (large crabgrass; [12]): 100 | Crabgrass, Large plant response rating (large crabgrass; 125 g ai/ha, visual rating): 10 | Crabgrass, Large plant response rating (large crabgrass; 500 g ai/ha, visual rating): 20 | Foxtail, Giant plant response rating (0 to 100 scale) (giant foxtail; [11]): 0 | Plant response rating, Foxtail, Giant (giant foxtail; [12]): 30 | Foxtail, Giant plant response rating (giant foxtail; 125 g ai/ha, visual rating): 10 | Foxtail, Giant plant response rating (giant foxtail; 500 g ai/ha, visual rating): 30 | Lambsquarters plant response rating (0 to 100 scale) (lambsquarters; [11]): 80 | Plant response rating, Lambsquarters (lambsquarters; [12]): 90 | Lambsquarters plant response rating (lambsquarters; 125 g ai/ha, visual rating): 50 | Lambsquarters plant response rating (lambsquarters; 500 g ai/ha, visual rating): 60 | Morningglory plant response rating (0 to 100 scale) (morningglory; [11]): 10 | Plant response rating, Morningglory (morningglory; [12]): 20 | Morningglory plant response rating (morningglory; 125 g ai/ha, visual rating): 30 | Morningglory plant response rating (morningglory; 500 g ai/ha, visual rating): 70 | Pigweed plant response rating (0 to 100 scale) (pigweed; [11]): 90 | Plant response rating, Pigweed (pigweed; [12]): 90 | Pigweed plant response rating (pigweed; postemergence, 500 g ai/ha, visual rating, scale 0 (no effect) to 100 (complete control)): 40 | Rice plant response rating (0 to 100 scale) (rice [2]; 125 g ai/ha): 10 | Plant response rating, Rice (rice [2]; 500 g ai/ha, visual rating): 50 | Velvetleaf plant response rating (0 to 100 scale) (velvetleaf; [11]): 20 | Plant response rating, Velvetleaf (velvetleaf; [12]): 40 | Velvetleaf plant response rating (velvetleaf; 125 g ai/ha, visual rating): 30 | Velvetleaf plant response rating (velvetleaf; 500 g ai/ha, visual rating): 40 | Blackgrass plant response rating (blackgrass; 125 g ai/ha): 0 | Blackgrass plant response rating (blackgrass; 500 g ai/ha): 0 | Wheat plant response rating (wheat; 125 g ai/ha): 0 | Wheat plant response rating (wheat; 500 g ai/ha): 0 | Oat, Wild plant response rating (wild oat; 125 g ai/ha): 0 | Oat, Wild plant response rating (wild oat; 500 g ai/ha): 0 | Rice plant response rating (rice [3]): 50 | Sedge, Umbrella plant response rating [4]: 90 | Ducksalad plant response rating (ducksalad [5]): 80 | Barnyardgrass plant response rating (barnyardgrass [6]): 40 | Rice plant response rating (rice [7]; [13]): 0 | Rice plant response rating (rice [7]; [14]): 20 | Rice plant response rating (rice [7]; [15]): 35 | Plant response rating, Rice (rice [7]; [16]): 60 | Sedge, Umbrella plant response rating [8, 13]: 0 | Sedge, Umbrella plant response rating [8, 14]: 35 | Sedge, Umbrella plant response rating [8, 15]: 55 | Plant response rating, Sedge, Umbrella [8, 16]: 85 | Ducksalad plant response rating (ducksalad [9]; [13]): 0 | Ducksalad plant response rating (ducksalad [9]; [14]): 0 | Ducksalad plant response rating (ducksalad [9]; [15]): 30 | Plant response rating, Ducksalad (ducksalad [9]; [16]): 80 | Barnyardgrass plant response rating (barnyardgrass [10]; [13]): 0 | Barnyardgrass plant response rating (barnyardgrass [10]; [14]): 0 | Barnyardgrass plant response rating (barnyardgrass [10]; [15]): 0 | Plant response rating, Barnyardgrass (barnyardgrass [10]; [16]): 15
